Here are results for 2 compounds from PMC8330735 (Journal of Enzyme Inhibition and Medicinal Chemistry, 2021).

Series [1] has as its system ROS production in LPS-activated RAW 264.7 macrophages. The series can be described thus: ROS production in LPS-activated RAW 264.7 macrophages (DCFH-DA). Type of series: cell-based. As to conditions: LPS 1 µg/mL activated RAW 264.7. The protocol: HCA7 colorectal cancer cell line was obtained from Sigma. […] Louis, MO) containing 10% heat-inactivated foetal bovine serum (HI-FBS) (Gibco, USA), 100 μg/mL streptomycin (Invitrogen, USA), and […] penicillin (Invitrogen, USA)[40]. HCA7 and RAW 264.7 cells were cultured in Dulbecco's minimal essential media (DMEM, Invitrogen) containing 10% HI-FBS, sodium pyruvate (1 mM), penicillin ([…]), and streptomycin (100 mg/m)[41]^,[42]. […] The cells were cultured, incubated with the different test compounds, and activated with LPS (1 µg/mL) as detailed above. […] IC50 values were calculated from the dose–response curves.

Series [2] relates to acetic acid-induced writhing in mice. The series can be described thus: Acetic acid induced writhing test. The class given is in vivo. The note with it: 50 mg/kg p.o.; for Number of writhes: 1 h prior acetic acid i.p., within 30 min. The protocol: The number of writhes, manifested as extension of hind legs, constriction of abdomen, or turning of trunk was recorded within 30 min.

The test system of series [3] is carrageenan-induced rat paw oedema. As to the kind of experiment: Carrageenan-induced rat paw oedema test. The class given is in vivo. As to conditions: compounds and celecoxib 50 mg/kg, ibuprofen and indomethacin 20 mg/kg; for Mean oedema thickness 1h: 1 h after carrageenan; for Mean oedema thickness 1h / Mean oedema thickness 2h / Mean oedema thickness 3h / Mean oedema thickness 4h / Mean oedema thickness 5h / Mean oedema thickness 24h / Mean oedema thickness 0h: mean ± SEM, n = 5; for Mean oedema thickness 2h: 2 h after carrageenan; for Mean oedema thickness 3h: 3 h after carrageenan; for Mean oedema thickness 4h: 4 h after carrageenan; for Mean oedema thickness 5h: 5 h after carrageenan; for Mean oedema thickness 24h: 24 h after carrageenan; for Mean oedema thickness 0h: before carrageenan (0 h); for Average oedema inhibition%: from area under the curve of all time points.

For series [4], the system named is stomach ulceration in rats. As to the kind of experiment: Gastric acute ulcerogenic activity. As to conditions: rat, n = 5; for Ulcer Index (UI): UI = UN + US + UP×10^−1.
Another series has as its target T1, ovine COX-1 (Ovis aries, UniProt P05979).
T1 sequence (P05979 25-600): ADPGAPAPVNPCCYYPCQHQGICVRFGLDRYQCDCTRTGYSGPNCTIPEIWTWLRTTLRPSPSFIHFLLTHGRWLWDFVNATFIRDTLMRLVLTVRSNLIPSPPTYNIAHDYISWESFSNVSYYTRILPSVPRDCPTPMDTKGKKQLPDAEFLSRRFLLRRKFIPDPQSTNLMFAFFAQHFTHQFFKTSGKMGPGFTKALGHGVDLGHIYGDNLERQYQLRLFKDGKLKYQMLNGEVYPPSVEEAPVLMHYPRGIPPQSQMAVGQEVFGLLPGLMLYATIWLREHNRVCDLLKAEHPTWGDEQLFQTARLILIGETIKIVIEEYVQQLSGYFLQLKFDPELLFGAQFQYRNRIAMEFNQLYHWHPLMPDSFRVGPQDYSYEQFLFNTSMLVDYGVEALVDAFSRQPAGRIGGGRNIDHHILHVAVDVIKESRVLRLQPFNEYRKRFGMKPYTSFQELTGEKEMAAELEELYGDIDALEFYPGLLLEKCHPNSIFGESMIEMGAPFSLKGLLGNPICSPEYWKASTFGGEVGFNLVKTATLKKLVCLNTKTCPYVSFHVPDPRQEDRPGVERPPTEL
As to the kind of experiment: In vitro COX-1 inhibitory assay (colorimetric Cayman kit).

For another series, the system named is HCA7 cells. The series can be described thus: MTS cell viability assay HCA7. The class given is cell-based. The note with it: Homo sapiens, HCA-7, 48 h, cell line highly expressing COX-2. The protocol: (§1) Human colorectal cancer cell lines, HCT116 and HT29, and RAW 264.7 macrophages were obtained from ATCC (Manassas, VA). HCA7 colorectal cancer cell line was obtained from Sigma. HT29 and HCT116 cells were cultured in McCoy's 5 A medium (Sigma Aldrich, St. Louis, MO) containing 10% heat-inactivated foetal bovine serum (HI-FBS) (Gibco, USA), 100 μg/mL streptomycin (Invitrogen, USA), and […] penicillin (Invitrogen, USA)[40]. HCA7 and RAW 264.7 cells were cultured in Dulbecco's minimal essential media (DMEM, Invitrogen) containing 10% HI-FBS, sodium pyruvate (1 mM), penicillin ([…]), and streptomycin (100 mg/m)[41]^,[42].
(§2) Cells were cultured in 96‐well plates for 48 h and then treated with serum-free media containing different concentrations of the tested compounds (12.5, 25, 50, 100 and 150 µM). After 48 h., MTS reagent (Promega) was added as directed by the manufacturer, and then, the absorbance was measured at 495 nm. The absorbance is proportional to the number of viable cells. IC50 was calculated from the dose-response curves as described previously[45] using GraphPad Prism 8 software (GraphPad Software, San Diego, CA).

The test system of another series is HCT116 cells. As to the kind of experiment: MTS cell viability assay HCT116. The class given is cell-based. The note with it: Homo sapiens, HCT-116, 48 h, cell line scarcely expressing COX-2. On the procedure:
as §1, §2

Series [5] has as its system NO production in LPS-activated RAW 264.7 macrophages. The series can be described thus: NO production in LPS-activated RAW 264.7 macrophages (DAF-FM). The class given is cell-based. The note with it: Mus musculus, RAW264.7; LPS 1 µg/mL activated RAW 264.7. On the procedure: HCA7 colorectal cancer cell line was obtained from Sigma. […] Louis, MO) containing 10% heat-inactivated foetal bovine serum (HI-FBS) (Gibco, USA), 100 μg/mL streptomycin (Invitrogen, USA), and […] penicillin (Invitrogen, USA)[40]. HCA7 and RAW 264.7 cells were cultured in Dulbecco's minimal essential media (DMEM, Invitrogen) containing 10% HI-FBS, sodium pyruvate (1 mM), penicillin ([…]), and streptomycin (100 mg/m)[41]^,[42]. […] Molecular Probes, USA). Briefly, RAW 264.7 cells were cultured in black 96-well plates (200,000 cells/mL, 100 µl/well) for 24 h. […] The fluorescence intensity, which is directly proportional to NO levels, was quantified, as detailed in our previous study. IC50 values were calculated from the dose–response curves.

The next series has as its system HT29 cells. The series can be described thus: MTS cell viability assay HT29. Type of series: cell-based. As to conditions: Homo sapiens, HT-29, 48 h, cell line moderately expressing COX-2. On the procedure: as §1, §2

The structures appear in SMILES notation. Where only a bound is given, the exact number is not on record here.

Procedure for ovine COX-1: All the newly synthesised compounds were tested for their ability to inhibit COX-1 and COX-2 enzymes using a screening assay method.

As to `CC(C)Cc1ccc(C(C)C(=O)NN2C(=O)c3ccccc3N(C)C2c2ccc([N+](=O)[O-])cc2)cc1` (stereo not shown) [7c, 2-(4-Isobutylphenyl)-N-(1-methyl-2-(4-nitrophenyl)-4-oxo-1,4-dihydroquinazolin-3(2H)-yl) propenamide], the IC50 in [1] turned out to be 9.23 ± 1.76 µM. In [1] (Mus musculus, RAW264.7), the IC50 came to 9.22 µM. Also, in series [2], the “Reduction in the pain response (writhes number)” value is 78% and the Number of writhes is 11.33 writhes. Further, in series [3], the “Mean oedema thickness 1h” value amounted to 1.79 ± 0.04 mm, the “Mean oedema thickness 2h” value came to 2.21 ± 0.35 mm, the “Mean oedema thickness 3h” value was determined as 1.90 ± 0.44 mm and the “Mean oedema thickness 4h” value is given as 1.62 ± 0.26 mm. In addition, in series [3], the “Mean oedema thickness 5h” value came out at 1.55 ± 0.29 mm, the “Mean oedema thickness 24h” value came out at 0.06 ± 0.04 mm, the “Mean oedema thickness 0h” value turned out to be 0.00 ± 0.00 mm and the Average oedema inhibition% came out at 45.37%. In series [4], the “Average Ulcer number” value amounted to 1, the “Lesion Incidence (%)” value is given as 60%, the “Number of rats with ulcer” value is given as 3 and the “Ulcer Index (UI)” value is recorded as 8. The same compound gave a 50% inhibitory concentration (IC50) against ovine COX-1 of 14.73 ± 0.13 µM. The same compound yielded an IC50 in the series with HCA7 cells greater than 150 µM. The compound further registered an IC50 in the series with HCT116 cells greater than 150 µM. Besides, half-maximal inhibition in [5] (IC50) required 23.4 ± 1.29 µM. In the series with HT29 cells, this compound yielded a half-inhibitory concentration (IC50) of 13.4 ± 0.17 µM.
On to `NNC(=O)CSc1nc2ccccc2c(=O)n1NC(=O)Cc1ccccc1` [13b, N-(2-((2-hydrazinyl-2-oxoethyl)thio)-4-oxoquinazolin-3(4H)-yl)-2-phenylacetamide], for which the midpoint of inhibition in [1] (Mus musculus, RAW264.7), the IC50, lay at 24.4 ± 1.43 µM. The Number of writhes result in series [2] is “no writhes”. For the same compound, in series [3], the “Mean oedema thickness 1h” value is recorded as 2.26 ± 0.30 mm, the “Mean oedema thickness 2h” value is 2.58 ± 0.41 mm, the “Mean oedema thickness 3h” value worked out at 2.67 ± 0.15 mm and the “Mean oedema thickness 4h” value is given as 1.97 ± 0.29 mm. Also, in series [3], the “Mean oedema thickness 5h” value was 1.61 ± 0.23 mm, the “Mean oedema thickness 24h” value is 0.45 ± 0.14 mm, the “Mean oedema thickness 0h” value was 0.00 ± 0.00 mm and the Average oedema inhibition% amounted to 45.49%. Further, in [4], the “Average Ulcer number” value is reported as 0.4, the “Lesion Incidence (%)” value was 40%, the “Number of rats with ulcer” value was found to be 2 and the “Ulcer Index (UI)” value is on record as 4.8. On ovine COX-1, this compound displayed an IC50 of 16.92 ± 0.16 µM. The compound also gave an IC50 in the series with HCA7 cells greater than 150 µM. In the series with HCT116 cells, this compound returned an IC50 greater than 150 µM. It took 9.76 ± 2.14 µM to reach half-maximal inhibition in [5] (IC50). In the series with HT29 cells, this compound yielded an IC50 greater than 150 µM.
